Laboratory results from patent US20110262566A1, “NOVEL USEFUL THERAPEUTIC AGENT FOR LOWER URINARY TRACT SYMPTOM” (DAINIPPON SUMITOMO PHARMA CO., LTD., priority 2008, published 2011).

Experiments:
small DRG neurons [1] = experiment: Test Example 2: combination effect with α1-adrenergic receptor blocker (high-K-induced rise in membrane potential, DiBAC4(3) fluorescence); type: cell-based, rat; conditions: control 72±3%
Method: This test was performed using male SD strain rats at 6 to 7 weeks of age after birth. The animals were reared in metal cages, and allowed to take food (CE-2; CLEA Japan) and water ad libitum. Rat spinal cord was dissected under halothane anesthesia. DRG tissue was removed from the spinal cord under a stereoscopic microscope, and recovered into an ice-cooled culture dish containing DMEM. The DRG tissue was digested using 0.25% trypsin and 0.38% collagenase, and DRG neurons were isolated. The DRG neurons were seeded to a cover glass coated with Poly-L-Lysine and laminin, and cultured. On the day after the start of cultivation, the DRG neurons were loaded with 5 μM DiBAC4(3) in the presence of 5% gaseous carbon dioxide at 37° C. for 1 hour or more. Thereafter, the neurons were transferred to an assay buffer solution (pH 7.3; 10 mM HEPES, 145 mM NaCl, 5 mM KCl, 2 mM CaCl2, 1 mM MgCl2, mM Glucose), and the fluorescence intensity of each DRG neuron was measured using the image analytical system AQUACOSMOS (Hamamatsu Photonics). When small DRG neurons were selected and stimulated with 60 mM high-concentration K solution (pH 7.3; 10 mM HEPES, 90 mM NaCl, 60 mM KCl, 2 mM CaCl2, 1 mM MgCl2, 10 mM Glucose), a rise in membrane potential was observed. When the 60 mM high-concentration K solution was replaced with the assay buffer solution, the transiently-elevated membrane potential fell rapidly. […]

small DRG neurons [2] = experiment: Test Example 1: action of the compound A on C-fiber activation (high-K-induced rise in membrane potential, DiBAC4(3) fluorescence); type: cell-based, rat; conditions: compound A 3 μM pretreated between 1st and 2nd 60 mM K stimulations; control 72±3%
Method: This test was performed using male SD strain rats at 6 to 7 weeks of age after birth. The animals were reared in metal cages, and allowed to take food (CE-2; CLEA Japan) and water ad libitum.
Rat spinal cord was dissected under halothane anesthesia. DRG tissue was removed from the spinal cord under a stereoscopic microscope, and recovered into an ice-cooled culture dish containing DMEM. The DRG tissue was digested using 0.25% trypsin and 0.38% collagenase, and DRG neurons were isolated. The DRG neurons were seeded to a cover glass coated with Poly-L-Lysine and laminin, and cultured.
On the day after the start of cultivation, the DRG neurons were loaded with 5 μM DiBAC4(3) in the presence of 5% gaseous carbon dioxide at 37° C. for 1 hour or more. Thereafter, the neurons were transferred to an assay buffer solution (pH 7.3; 10 mM HEPES, 145 mM NaCl, 5 mM KCl, 2 mM CaCl2, 1 mM MgCl2, mM Glucose), and the fluorescence intensity of each DRG neuron was measured using the image analytical system AQUACOSMOS (Hamamatsu Photonics).
When small DRG neurons were selected and stimulated with 60 mM high-concentration K solution (pH 7.3; 10 mM HEPES, 90 mM NaCl, 60 mM KCl, 2 mM CaCl2, 1 mM MgCl2, 10 mM Glucose), a rise in membrane potential was observed. When the 60 mM high-concentration K solution was replaced with the assay buffer solution, the transiently-elevated membrane potential fell rapidly. […]

SMILES: CCOc1ccccc1OCCN[C@H](C)Cc1ccc(OC)c(S(N)(=O)=O)c1 [tamsulosin]
- change in membrane potential (small DRG neurons [1]; tamsulosin 0.1 μM alone, pretreatment, 60 mM K stimulation): nearly the same extent as with the control

SMILES: COc1ccccc1N1CCN(CC(O)COc2cccc3ccccc23)CC1 (stereo not drawn) [naftopidil]
- rise in membrane potential (ΔF/F), second rise relative to first rise as 100% (small DRG neurons [1]; naftopidil 30 μM alone, treated between 1st and 2nd 60 mM K stimulations): 40±5%

SMILES: O=C1Nc2ccccc2[C@H](c2ccccc2)N1C1CCN(Cc2cccc(OC(F)(F)F)c2)CC1 [compound A, (+)-3-{1-[3-(trifluoromethoxy)benzyl]piperidin-4-yl}-4-phenyl-3,4-dihydro-2(1H)-quinazolinone]
- rise in membrane potential (ΔF/F), second rise relative to first rise as 100% (small DRG neurons [2]): 66±6%
